Test results: US20210212321A1, “STABILIZED FUNGICIDAL COMPOSITION COMPRISING CYCLODEXTRIN” (Bayer CropScience LP, priority 2018, published 2021)

How the values were obtained:
Assay type in all cases: physicochemical
[1] = Storage stability of prothioconazole/penflufen mixture with 25 wt % MeCD at various temperatures (HPLC); conditions: for % PFL / % Degradation (PTZ) / % PTZ: with 25 wt % MeCD
Description: Aqueous solutions of a mixture of prothioconazole (PTZ) at a concentration of about 1.5% (w/w), and penflufen at a concentration of about 1.65% (w/w), were prepared and physically mixed with MeCD at 25 wt %. These samples were stored for two weeks at 54° C., for eight weeks at 40° C., or for 6 months at 30° C. The initial amount of PTZ or PFL in each sample was measured together with the final amount of PTZ or PLF after storage using HPLC.

[2] = Storage stability of RAXIL PRO MD + penflufen with increasing methyl cyclodextrin (HPLC); conditions: RAXIL PRO MD+PFL (1.38% w/w), highest concentration of cyclodextrin (MeCD); two weeks at 54° C.
From the text: A sample containing PTZ without any PFL or cyclodextrin was included as the “Control” in FIGS. 3 and 4.

[3] = Storage of Prothioconazole SC for two months with or without nitrogen purging; prothioconazole desthio quantified by LC-MS; conditions: sample D compared to samples A and B
Description: All samples were stored in glass containers with exposure to ambient light at room temperature for two months. Certain samples were also wrapped with foil to limit exposure to ambient oxygen. At the conclusion of the storage period, prothioconazole desthio was quantified in each sample using LC-MS.
This study was conducted with the same group of samples stored for two months in containers made of plastic instead of glass, and similar results were observed.

[4] = Storage stability of aqueous prothioconazole solutions with or without cyclodextrins (LC-MS); conditions: two weeks at 54° C.
Description: Aqueous solutions of prothioconazole (PTZ) at a concentration of about 1% to about 1.5% (w/w) were prepared. These samples were stored for two weeks at 54° C., for eight weeks at 40° C., or for 52 weeks at 20° C. The initial amount of PTZ in each sample was measured together with the final amount of PTZ after storage using LC-MS as outlined in Example 1. From these measurements the percentage of PTZ remaining after storage was calculated and ranged from about 94% to about 97% (see FIG. 1A).
In a separate experiment, the ability of two different cyclodextrins, 2-hydroxypropyl-β cyclodextrin (HPCD) and methyl-β cyclodextrin (MeCD), to stabilize PTZ was evaluated. Aqueous solutions of PTZ at a concentration of about 1% to about 1.5% (w/w) were mixed with 15% (w/w) HPCD or 15% (w/w) MeCD. A control sample contained no cyclodextrins. The samples were stored for two weeks at 54° C., and the percentage of PTZ remaining after storage was calculated as before using LC-MS.

[5] = Storage of RAXIL PRO MD for two weeks with or without nitrogen purging; prothioconazole desthio quantified by LC-MS; conditions: sample D compared to samples A, B and C
Description: RAXIL® PRO MD is a commercial product containing 1.47% prothioconazole, 0.29% tebuconazole, and 0.59% metalaxyl in an aqueous formulation. Samples of RAXIL® PRO MD were subjected to nitrogen purging by bubbling nitrogen gas through the samples for about 5 minutes. Control samples were not purged with nitrogen. The samples were then divided into the groups outlined in Table 1. Samples were either maintained in the dark or exposed to ambient light. In addition, certain samples were wrapped in foil to minimize contact with ambient oxygen while others were not. All samples were stored at room temperature.
After two weeks of storage under these conditions, prothioconazole desthio was quantified in each sample using liquid chromatography mass spectrometry (LC-MS) using a SCIEX TRIPLE QUAD™6500 and a standard curve generated with a prothioconazole desthio chemical standard.

## Cc1nn(C)c(F)c1C(=O)Nc1ccccc1C(C)CC(C)C (stereo not shown) [Penflufen, N[2-(1,3-dimethylbutyl)phenyl]-5-fluoro-1,3-dimethyl pyrazole-4-carboxamide]
[1]; 0 weeks, 1.65 % (w/w)
  % Degradation (PFL): 0%
[1]; Table 3, 30° C. for 6 months
  % PFL: 1.62%
[1]; Table 3, 40° C. for 8 weeks
  % PFL: 1.54%
[1]; Table 3, 54° C. for 2 weeks
  % PFL: 1.6%
[1]; Table 3, T0
  % PFL: 1.68%
[1]; Table 4, 30° C. for 6 months
  % PFL: 1.58%
[1]; Table 4, 40° C. for 8 weeks
  % PFL: 1.60%
[1]; Table 4, 54° C. for 2 weeks
  % PFL: 1.58%
[1]; Table 4, T0
  % PFL: 1.64%
[2]
  reduction in degradation of PFL: 65%

## OC(Cc1ccccc1Cl)(Cn1nc[nH]c1=S)C1(Cl)CC1 (racemic) [Prothioconazole, 2-[2-(1-chlorocyclopropyl)-3-(2-chloro-phenyl)-2-hydroxy-propyl]-2,4-dihydro-3H-1,2,4-triazole-3-thione]
[3]
  Level of degradation to prothioconazole desthio, sample exposed to light and ambient oxygen versus nitrogen-stabilized samples: about ten times higher
[4]; mixed with 15% (w/w) HPCD
  degradation of PTZ: no observable degradation
[4]; mixed with 15% (w/w) MeCD
  degradation of PTZ: no observable degradation
[1]; Table 3, 30° C. for 6 months
  % Degradation (PTZ): 2.01%
  % PTZ: 1.46%
[1]; Table 3, 40° C. for 8 weeks
  % Degradation (PTZ): 4.03%
  % PTZ: 1.43%
[1]; Table 3, 54° C. for 2 weeks
  % Degradation (PTZ): 2.68%
  % PTZ: 1.45%
[1]; Table 3, T0
  % Degradation (PTZ): 0%
  % PTZ: 1.49%
[1]; Table 4, 30° C. for 6 months
  % Degradation (PTZ): 2.01%
  % PTZ: 1.46%
[1]; Table 4, 40° C. for 8 weeks
  % Degradation (PTZ): 4.70%
  % PTZ: 1.42%
[1]; Table 4, 54° C. for 2 weeks
  % Degradation (PTZ): 2.01%
  % PTZ: 1.46%
[1]; Table 4, T0
  % Degradation (PTZ): 0%
  % PTZ: 1.49%
[2]
  reduction in degradation of PTZ: 86%
[5]
  Level of degradation to prothioconazole desthio, samples not purged with nitrogen versus nitrogen-stabilized samples and samples stored in the dark: over ten times higher
